Reference: publication PMC5859971 (Genes & Development, 2018)
pIC50: −log10 of the molar value. Entries after “also recorded” stand apart in the source; their conditions may differ.

Columns and labels:
[1] = biological target: T1, PHF5A^Y36C mutant complex (Homo sapiens, UniProt O75533+Q7RTV0, Y36C); assay: MST compound binding to PHF5A^Y36C mutant complex; settings: result in words
T1 construct: SF3B1 was limited to the HEAT repeat domain from residues 454–1304 and cloned in-frame with an N-terminal Flag tag; Truncated SF3B1 and full-length SF3B3, PHF5A, and SF3B5 were synthesized; Flag (N); made in house; host or cells: SF21 insect cells (inferred to be made as the wild-type complex)
T1 sequence (Q15393 whole entry, the tested form may be a part): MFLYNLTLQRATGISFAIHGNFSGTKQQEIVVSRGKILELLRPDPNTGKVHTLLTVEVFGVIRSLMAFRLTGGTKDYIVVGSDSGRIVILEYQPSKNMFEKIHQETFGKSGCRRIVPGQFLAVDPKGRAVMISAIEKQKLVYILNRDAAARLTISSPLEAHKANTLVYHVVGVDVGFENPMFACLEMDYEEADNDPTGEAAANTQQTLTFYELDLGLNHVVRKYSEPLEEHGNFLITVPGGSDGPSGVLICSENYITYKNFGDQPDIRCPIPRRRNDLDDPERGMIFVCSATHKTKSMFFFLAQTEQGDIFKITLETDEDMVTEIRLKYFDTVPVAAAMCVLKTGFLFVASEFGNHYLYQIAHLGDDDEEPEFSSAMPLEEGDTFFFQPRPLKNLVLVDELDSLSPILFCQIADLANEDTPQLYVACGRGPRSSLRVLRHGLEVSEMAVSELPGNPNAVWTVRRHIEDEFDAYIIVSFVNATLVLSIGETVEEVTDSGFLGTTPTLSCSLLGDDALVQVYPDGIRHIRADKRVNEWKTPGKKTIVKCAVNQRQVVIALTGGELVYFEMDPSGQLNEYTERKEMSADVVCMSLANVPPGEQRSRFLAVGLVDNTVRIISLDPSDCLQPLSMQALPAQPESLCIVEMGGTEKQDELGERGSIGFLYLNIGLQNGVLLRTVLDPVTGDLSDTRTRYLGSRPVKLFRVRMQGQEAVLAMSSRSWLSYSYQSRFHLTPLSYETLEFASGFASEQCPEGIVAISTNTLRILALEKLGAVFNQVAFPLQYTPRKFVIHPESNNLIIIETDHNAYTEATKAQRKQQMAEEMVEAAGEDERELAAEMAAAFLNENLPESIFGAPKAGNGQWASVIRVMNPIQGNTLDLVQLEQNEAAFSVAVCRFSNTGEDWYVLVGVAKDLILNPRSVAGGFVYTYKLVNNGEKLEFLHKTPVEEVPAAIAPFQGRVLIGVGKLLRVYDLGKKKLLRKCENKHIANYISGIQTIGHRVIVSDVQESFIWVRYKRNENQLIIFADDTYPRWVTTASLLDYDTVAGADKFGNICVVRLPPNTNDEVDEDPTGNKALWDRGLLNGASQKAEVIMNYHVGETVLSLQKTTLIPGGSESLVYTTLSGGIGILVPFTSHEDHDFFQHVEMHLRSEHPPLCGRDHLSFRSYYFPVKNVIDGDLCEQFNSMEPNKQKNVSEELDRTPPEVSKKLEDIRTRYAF
T1 sequence (Q9BWJ5 whole entry, further chain, the tested form may be a part): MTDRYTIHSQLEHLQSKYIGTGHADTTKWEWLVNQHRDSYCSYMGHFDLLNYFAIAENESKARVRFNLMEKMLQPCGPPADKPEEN
T1 sequence (O75533 454-1304): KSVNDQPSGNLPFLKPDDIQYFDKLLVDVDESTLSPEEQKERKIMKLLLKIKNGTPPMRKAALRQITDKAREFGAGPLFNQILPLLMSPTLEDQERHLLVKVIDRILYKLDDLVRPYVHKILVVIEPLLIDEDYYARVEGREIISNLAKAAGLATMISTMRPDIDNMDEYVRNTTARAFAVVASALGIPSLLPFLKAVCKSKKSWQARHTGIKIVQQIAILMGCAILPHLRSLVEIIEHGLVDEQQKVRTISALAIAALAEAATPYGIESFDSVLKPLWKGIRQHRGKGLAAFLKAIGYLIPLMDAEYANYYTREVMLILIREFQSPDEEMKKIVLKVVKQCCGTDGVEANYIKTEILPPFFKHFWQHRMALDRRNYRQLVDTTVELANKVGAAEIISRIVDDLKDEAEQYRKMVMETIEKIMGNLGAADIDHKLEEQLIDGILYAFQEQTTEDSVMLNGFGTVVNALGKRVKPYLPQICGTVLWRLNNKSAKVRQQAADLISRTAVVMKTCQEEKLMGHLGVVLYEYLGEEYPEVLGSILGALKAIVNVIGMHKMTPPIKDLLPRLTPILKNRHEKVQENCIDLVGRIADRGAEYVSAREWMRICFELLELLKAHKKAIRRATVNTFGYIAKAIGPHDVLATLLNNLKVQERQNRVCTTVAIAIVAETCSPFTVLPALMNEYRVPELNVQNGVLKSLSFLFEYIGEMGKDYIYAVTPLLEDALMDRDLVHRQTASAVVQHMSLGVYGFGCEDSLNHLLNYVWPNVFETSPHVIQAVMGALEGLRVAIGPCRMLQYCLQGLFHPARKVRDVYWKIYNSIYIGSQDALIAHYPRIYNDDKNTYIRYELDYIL
T1 sequence (Q7RTV0 whole entry Y36C, the tested form may be a part): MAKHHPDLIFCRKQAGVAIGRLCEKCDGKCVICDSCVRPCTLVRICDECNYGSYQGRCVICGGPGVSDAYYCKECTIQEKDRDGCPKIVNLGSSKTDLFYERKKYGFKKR
Procedure: The four-protein complex composed of the HEAT repeats of SF3B1 (residues 454–1304) as well as full-length SF3B3, SF3B5, and PHF5A was coexpressed and purified from insect cells. This complex is necessary and sufficient for compound binding in a scintillation proximity assay (SPA) format ([Teng et al. 2017]).
The SF3b subcomplex was first titrated against a fixed concentration (25 nM) of fluorescent label (NTA-647) to determine the optimal concentrations of protein and label for the MST experiment. After 15 min of incubation at room temperature, samples were loaded into Monolith NT.115 capillaries, and MST analysis was performed using a Monolith NT.115Pico. […] For subsequent compound-binding experiments, the SF3b subcomplex bound to NTA-647 was fixed at 10 nM, and the compound was titrated from 50 µM to 3 pM. After 15 min of incubation, samples were loaded into capillaries, and analysis was performed as described previously.

[2] = biological target: T2, wild-type mini-SF3b complex (4-protein SF3b complex) (Homo sapiens, UniProt O75533+Q7RTV0); assay: Scintillation proximity assay (SPA) competition with 3H-labeled pladienolide probe; type: binding; settings: competition with 10 nM 3H-labeled pladienolide probe, 25 nM protein; read-out: SPA IC50
T2 construct: SF3B1 was limited to the HEAT repeat domain from residues 454–1304 and cloned in-frame with an N-terminal Flag tag; Truncated SF3B1 and full-length SF3B3, PHF5A, and SF3B5 were synthesized; made in house; host or cells: SF21 insect cells (baculovirus, pFastBac1)
T2 sequence (Q7RTV0 whole entry, the tested form may be a part): as the sequence (Q7RTV0 whole entry Y36C, the tested form may be a part) above, with C36Y counted along it
T2 sequence (Q15393 whole entry, further chain, the tested form may be a part): as the sequence (Q15393 whole entry, the tested form may be a part) above
T2 sequence (O75533 454-1304): as the sequence (O75533 454-1304) above
T2 sequence (Q9BWJ5 whole entry, further chain, the tested form may be a part): as the sequence (Q9BWJ5 whole entry, further chain, the tested form may be a part) above
Procedure: To further validate the pose of the compound, we analyzed the activity of several related chemical probes using the SPA with the purified protein complex ([Teng et al. 2017]). The SPA is formatted as a competition assay in which the purified protein complex is captured on a bead containing scintillant, incubated with test compounds over a dose response, and then competed off with a fixed concentration of ^3H-Plad compound. IC50 curves are then measured from the resulting light emitted from the bead (Table 1; Supplemental Fig. S4). In addition, we tested the probes in viability assays in two engineered cell lines: HCT116-PHF5A^WT and the sensitization line HCT116-PHF5A^R38C (Table 1; Supplemental Fig. S5). This facilitates profiling of chemical probe activity in the PHF5A background (wild type and mutant). The relative expression levels were further confirmed by Western blot analysis (Supplemental Fig. S5).
Batch immobilization of the anti-Flag antibody (Sigma) to the anti-mouse PVT SPA scintillation beads (PerkinElmer) was prepared as follows. For every 1.5 mg of beads, 10 µg of antibody was prepared in 150 µL of PBS. The antibody–bead mixture was incubated for 30 min at room temperature and centrifuged at 18,000g for 5 min. One-hundred-fifty microliters of PBS was used to resuspend every 1.5 mg of antibody–bead mixture. The aforementioned mini-SF3b complex was tested for ^3H-labeled pladienolide probe binding ([Kotake et al. 2007]). One-hundred microliters of binding reactions was prepared with […] of bead slurry and 0 or 50 nM protein in buffer (20 mM HEPES at pH 8, 200 mM KCl, 5% glycerol). The mixture was incubated for 30 min, and varying concentrations of ^3H-labeled pladienolide probe were added. The mixture was incubated for 30 min, and luminescence signals were read using a MicroBeta2 plate counter (PerkinElmer). Compound competition studies were performed with the wild-type mini-SF3b complex. One-hundred microliters of binding reactions was prepared with 50 µL of bead slurry, 25 nM protein in buffer, and compounds at varying concentrations. After 30 min of preincubation, 10 nM ^3H-labeled pladienolide probe was added. The reactions were incubated for 30 min, and luminescence signals were read.
The Scintillation proximity assay (SPA) competition assay with 10 nM 3H tracer for different Pladienolide analogs binding to the 4-protein SF3b complex. Error bars represent STD for 2 or more measurements. Red = E7107, Orange = PladD, Purple = PladF, Green = compound 2, red = compound 3, gray = compound 4, black = compound 5, blue = compound 6. […]

[3] = system: SF3B1^R1074H and PHF5A^Y36 mutations; settings: strongest levels of resistance; ref Yokoi et al. 2011; Teng et al. 2017; cited from earlier work

Compound: CCC(O)C(C)C1OC1CC(C)(O)C=CC=C(C)C1OC(=O)CC(O)CCC(C)(O)C(OC(=O)N2CCN(C3CCCCCC3)CC2)C=CC1C (stereo not drawn) [Compound E7107]
- binding to PHF5A^Y36C mutant complex [1]: no binding was detected; also recorded: not able to bind
- pIC50 [2]: 7.17
- resistance conferred by SF3B1^R1074H and PHF5A^Y36C [3]: > 500 fold
